Test [1] has as its target ROCK2 (Homo sapiens, UniProt O75116). Description: biochemical.
Test [2] addresses ROCK1 (Homo sapiens, UniProt Q13464). As to the kind of experiment: ROCK kinase inhibition assay, ROCK1 enzyme.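 Further: kinase reaction with 0.5 µM final ATP, 75 min at room temperature, remaining ATP read by luminescence, percent of DMSO-only control minus background.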 The test is classed as biochemical.
In test [3] the target is JAK2 (Homo sapiens, UniProt O60674). Description: JAK kinase assay, JAK2 enzyme.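 Further: JAK2 kinase reaction run 75 min at room temperature, leftover ATP read by Kinase-Glo luminescence, 11-point dilution series in 2.5% DMSO, percent of inhibitor-free DMSO control.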 Format: biochemical.
Chain of JAK2 (O60674 whole entry, species assumed): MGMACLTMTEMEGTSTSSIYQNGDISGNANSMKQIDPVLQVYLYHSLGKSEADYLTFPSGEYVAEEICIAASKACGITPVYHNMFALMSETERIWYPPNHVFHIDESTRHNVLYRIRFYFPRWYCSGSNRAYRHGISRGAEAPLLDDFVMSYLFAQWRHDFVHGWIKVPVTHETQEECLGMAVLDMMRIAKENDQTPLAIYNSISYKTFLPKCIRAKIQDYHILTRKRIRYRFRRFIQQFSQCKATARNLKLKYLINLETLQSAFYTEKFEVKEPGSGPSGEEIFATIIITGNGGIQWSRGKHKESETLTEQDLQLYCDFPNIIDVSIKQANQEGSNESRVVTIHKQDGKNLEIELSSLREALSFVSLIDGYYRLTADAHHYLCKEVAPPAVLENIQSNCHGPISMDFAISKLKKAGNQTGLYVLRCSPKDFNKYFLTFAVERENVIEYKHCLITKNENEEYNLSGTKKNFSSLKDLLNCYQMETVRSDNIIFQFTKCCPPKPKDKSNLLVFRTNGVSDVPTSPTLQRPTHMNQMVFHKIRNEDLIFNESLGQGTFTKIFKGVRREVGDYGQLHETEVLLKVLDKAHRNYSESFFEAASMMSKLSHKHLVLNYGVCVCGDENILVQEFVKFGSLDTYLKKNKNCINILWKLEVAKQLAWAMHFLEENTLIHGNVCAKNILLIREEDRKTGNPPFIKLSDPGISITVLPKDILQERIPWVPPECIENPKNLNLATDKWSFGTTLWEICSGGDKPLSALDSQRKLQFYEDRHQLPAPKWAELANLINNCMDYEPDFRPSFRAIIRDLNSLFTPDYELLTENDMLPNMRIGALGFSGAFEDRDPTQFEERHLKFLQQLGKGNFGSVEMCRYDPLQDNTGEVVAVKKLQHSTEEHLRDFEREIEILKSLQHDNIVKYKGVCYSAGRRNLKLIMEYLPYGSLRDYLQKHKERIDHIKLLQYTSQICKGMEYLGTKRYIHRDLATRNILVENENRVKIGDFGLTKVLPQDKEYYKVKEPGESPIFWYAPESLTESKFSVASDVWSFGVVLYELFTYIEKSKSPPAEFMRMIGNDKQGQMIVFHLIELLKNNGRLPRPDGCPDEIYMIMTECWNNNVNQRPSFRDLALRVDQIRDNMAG
For test [4], the target named is T1, JAK3 (Homo sapiens, UniProt P52333).
T1 sequence (P52333 1-1124): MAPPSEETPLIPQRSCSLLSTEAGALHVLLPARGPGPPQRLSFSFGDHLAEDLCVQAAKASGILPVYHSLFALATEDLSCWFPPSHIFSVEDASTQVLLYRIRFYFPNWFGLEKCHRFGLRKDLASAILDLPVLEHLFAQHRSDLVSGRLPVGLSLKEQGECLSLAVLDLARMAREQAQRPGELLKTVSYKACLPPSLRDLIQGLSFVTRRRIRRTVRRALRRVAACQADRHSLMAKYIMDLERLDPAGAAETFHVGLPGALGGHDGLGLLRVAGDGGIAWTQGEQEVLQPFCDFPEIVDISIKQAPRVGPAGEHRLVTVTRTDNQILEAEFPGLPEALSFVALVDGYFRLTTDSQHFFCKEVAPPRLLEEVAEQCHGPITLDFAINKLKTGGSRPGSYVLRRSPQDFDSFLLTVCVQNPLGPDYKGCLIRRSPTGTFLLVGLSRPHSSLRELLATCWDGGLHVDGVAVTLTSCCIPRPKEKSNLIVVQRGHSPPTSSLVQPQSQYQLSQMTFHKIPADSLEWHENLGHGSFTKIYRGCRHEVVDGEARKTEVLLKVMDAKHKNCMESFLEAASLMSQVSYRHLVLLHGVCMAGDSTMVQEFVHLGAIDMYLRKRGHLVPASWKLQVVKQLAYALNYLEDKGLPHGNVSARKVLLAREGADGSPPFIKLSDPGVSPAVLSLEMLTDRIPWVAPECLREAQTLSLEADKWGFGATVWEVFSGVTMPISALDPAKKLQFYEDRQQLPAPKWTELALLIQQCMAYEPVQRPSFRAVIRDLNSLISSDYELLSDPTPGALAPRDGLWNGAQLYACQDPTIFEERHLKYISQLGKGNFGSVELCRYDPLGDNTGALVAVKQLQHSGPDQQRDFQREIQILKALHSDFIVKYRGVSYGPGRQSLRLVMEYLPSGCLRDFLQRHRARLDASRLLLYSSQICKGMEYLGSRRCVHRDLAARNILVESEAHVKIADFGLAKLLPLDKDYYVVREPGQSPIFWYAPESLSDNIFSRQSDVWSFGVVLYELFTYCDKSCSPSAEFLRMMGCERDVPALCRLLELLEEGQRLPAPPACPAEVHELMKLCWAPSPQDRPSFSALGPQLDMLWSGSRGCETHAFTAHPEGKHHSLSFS
Description: JAK kinase assay, JAK3 enzyme. The test is classed as biochemical. Particulars: read-out: JAK3.

Test [5] addresses Rho Kinase. As to the kind of experiment: ROCK kinase inhibition assay (Rho Kinase Activity, isoform not given). Conditions: Table 15, mostly given as ranges. The test is classed as biochemical. The protocol:
All compounds were initially prepared as 10 mM stocks in anhydrous dimethylsulfoxide (DMSO). A 20 μl aliquot of the 10 mM solutions was transferred to individual wells in column 1 of a 96-well polypropylene microtiter plate (Corning #3363) and diluted with DMSO to give a final compound concentration of 4 mM. Test compounds were then serially diluted 1:5 in DMSO for an 11-point concentration response and further diluted in the assay buffer bringing all compound concentrations to a final range of 100 μM to […] in 2.5% DMSO. The assay was performed in white 96-well, flat-bottom, half-area, non-binding assay plate (Corning #3642) in assay buffer consisting of 20 mM HEPES (pH 7.5), 10 mM MgCl2*6H2O, 100 μM sodium orthovanadate, 0.05% CHAPS and 0.1% bovine serum albumin. A 10 μL aliquot of compound from each well of the intermediate dilution plate and 20 μL of a 2× substrate/enzyme solution containing acceptor substrate (800 nM RSK2 peptide […] (SEQ ID NO: 1)), ROCK2 enzyme (10 nM), or ROCK1 enzyme, and 1,4-Dithiothreitol (DTT, 2 uM) were added to all wells. The reaction was initiated by the addition of 10 μL of 4× stock solution ATP (2 μM). Reactions were thoroughly mixed manually, covered and allowed to incubate at room temperature for 75 min. Protein kinase activity was quantitated using Promega's KINASE-GLO™ luminescent Kinase Assay Kit according to the manufacturer's directions. ATP concentrations remaining in Test wells following the termination of the enzymatic reaction were compared against control wells containing equivalent amounts of DMSO containing no inhibitor (CTRL). […] Percent of Control (POC) values were determined for each concentration of compound tested according to the equation: POC=((Test well value−BKG)/(CTRL−BKG))*100
IC50 values were converted to K; […]

The mark [6] stands for this setting: Table 15, in brackets in the activity cell, read-out: JAK2 activity.

pKi: −log10 of the molar value. Structures can show the parent of a compound that is named as a salt. Where two headings read alike, the source gives them in different places.

Chain of ROCK2 (O75116 whole entry, species assumed): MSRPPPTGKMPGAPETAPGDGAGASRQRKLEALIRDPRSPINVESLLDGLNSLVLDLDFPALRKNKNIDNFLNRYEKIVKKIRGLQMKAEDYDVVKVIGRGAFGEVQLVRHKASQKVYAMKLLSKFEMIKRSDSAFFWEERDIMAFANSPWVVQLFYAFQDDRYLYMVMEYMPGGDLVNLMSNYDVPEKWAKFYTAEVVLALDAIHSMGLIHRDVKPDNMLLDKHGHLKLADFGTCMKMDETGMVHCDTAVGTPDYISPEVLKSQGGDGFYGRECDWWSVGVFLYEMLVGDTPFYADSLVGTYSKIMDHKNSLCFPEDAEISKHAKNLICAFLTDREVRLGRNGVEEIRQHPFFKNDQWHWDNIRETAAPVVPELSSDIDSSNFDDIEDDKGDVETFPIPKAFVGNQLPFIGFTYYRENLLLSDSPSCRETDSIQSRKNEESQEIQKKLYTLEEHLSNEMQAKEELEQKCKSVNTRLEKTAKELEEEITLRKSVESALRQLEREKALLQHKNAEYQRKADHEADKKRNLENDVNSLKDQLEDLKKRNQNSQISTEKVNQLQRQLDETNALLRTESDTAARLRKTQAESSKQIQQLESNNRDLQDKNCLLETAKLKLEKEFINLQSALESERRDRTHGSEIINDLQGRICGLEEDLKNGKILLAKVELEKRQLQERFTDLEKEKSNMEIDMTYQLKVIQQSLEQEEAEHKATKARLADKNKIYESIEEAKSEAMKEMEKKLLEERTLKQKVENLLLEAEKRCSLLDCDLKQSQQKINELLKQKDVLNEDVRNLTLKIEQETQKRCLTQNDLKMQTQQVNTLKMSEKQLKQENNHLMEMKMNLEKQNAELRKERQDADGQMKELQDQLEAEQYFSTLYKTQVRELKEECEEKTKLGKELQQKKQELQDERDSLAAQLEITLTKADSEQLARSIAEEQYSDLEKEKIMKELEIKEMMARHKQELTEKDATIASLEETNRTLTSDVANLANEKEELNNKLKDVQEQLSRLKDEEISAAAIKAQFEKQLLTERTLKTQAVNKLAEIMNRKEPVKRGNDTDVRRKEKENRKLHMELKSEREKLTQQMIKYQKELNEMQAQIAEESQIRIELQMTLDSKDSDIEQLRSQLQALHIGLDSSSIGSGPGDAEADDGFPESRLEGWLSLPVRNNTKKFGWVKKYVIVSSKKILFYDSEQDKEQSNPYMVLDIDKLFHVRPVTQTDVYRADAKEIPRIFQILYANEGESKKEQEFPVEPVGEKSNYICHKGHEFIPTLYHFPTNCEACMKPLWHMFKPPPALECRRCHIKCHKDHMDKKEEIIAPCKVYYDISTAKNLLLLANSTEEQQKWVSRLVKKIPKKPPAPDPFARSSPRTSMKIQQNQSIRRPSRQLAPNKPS
Chain of ROCK1 (Q13464 whole entry, species assumed): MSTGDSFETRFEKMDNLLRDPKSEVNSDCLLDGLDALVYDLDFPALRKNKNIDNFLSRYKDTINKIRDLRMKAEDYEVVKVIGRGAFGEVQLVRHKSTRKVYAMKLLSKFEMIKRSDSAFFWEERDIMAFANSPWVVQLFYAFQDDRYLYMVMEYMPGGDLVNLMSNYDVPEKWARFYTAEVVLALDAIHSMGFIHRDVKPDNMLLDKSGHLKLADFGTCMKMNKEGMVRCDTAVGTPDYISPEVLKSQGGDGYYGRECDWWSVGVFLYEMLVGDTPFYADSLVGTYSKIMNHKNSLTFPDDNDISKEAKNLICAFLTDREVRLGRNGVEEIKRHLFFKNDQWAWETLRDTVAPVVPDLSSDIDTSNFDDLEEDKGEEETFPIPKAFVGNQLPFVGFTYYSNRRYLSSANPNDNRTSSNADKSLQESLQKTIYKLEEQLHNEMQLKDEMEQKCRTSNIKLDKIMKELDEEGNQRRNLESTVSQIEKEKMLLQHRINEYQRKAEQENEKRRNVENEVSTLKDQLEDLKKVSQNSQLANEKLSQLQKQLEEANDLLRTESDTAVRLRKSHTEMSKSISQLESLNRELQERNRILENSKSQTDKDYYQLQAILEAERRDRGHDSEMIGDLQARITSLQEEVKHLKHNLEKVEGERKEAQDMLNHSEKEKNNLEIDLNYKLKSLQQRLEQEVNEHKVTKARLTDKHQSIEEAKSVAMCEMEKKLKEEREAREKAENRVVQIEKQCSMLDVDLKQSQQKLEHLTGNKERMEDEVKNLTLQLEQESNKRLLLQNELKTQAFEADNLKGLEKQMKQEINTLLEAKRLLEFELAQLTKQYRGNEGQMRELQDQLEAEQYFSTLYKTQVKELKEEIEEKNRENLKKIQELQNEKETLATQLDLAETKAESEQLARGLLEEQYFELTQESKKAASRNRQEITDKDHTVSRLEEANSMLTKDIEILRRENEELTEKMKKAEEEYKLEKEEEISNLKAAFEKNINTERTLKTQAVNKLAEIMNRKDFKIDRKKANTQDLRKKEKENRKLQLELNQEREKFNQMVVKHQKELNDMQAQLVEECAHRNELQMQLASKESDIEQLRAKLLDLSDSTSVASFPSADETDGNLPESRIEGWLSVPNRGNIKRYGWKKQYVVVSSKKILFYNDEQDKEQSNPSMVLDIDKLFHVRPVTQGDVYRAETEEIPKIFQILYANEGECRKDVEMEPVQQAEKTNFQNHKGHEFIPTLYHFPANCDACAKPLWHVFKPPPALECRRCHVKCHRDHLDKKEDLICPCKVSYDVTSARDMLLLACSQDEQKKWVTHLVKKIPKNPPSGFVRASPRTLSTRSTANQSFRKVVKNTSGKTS

`O=C(Nc1ccc2cnccc2c1)[C@@H]1C[C@H]1c1ccc(S(=O)(=O)NCc2cccnc2)cc1` (relative stereo) [(rel)-(1R,2R)-N-(isoquinolin-6-yl)-2-(4-(N-(pyridin-3-ylmethyl)sulfamoyl)phenyl) cyclopropane-1-carboxamide]: the pKi in test [1] (ROCK2, Table 17) is 8.05; in test [2] (ROCK1, Table 17) it was 7.60.
Take `O=C(Nc1ccc2cnccc2c1)[C@@H]1C[C@H]1c1ccc(I)cc1` (relative stereo) [drawing 670, (rel)-(1R,2R)-2-(4-iodophenyl)-N-(isoquinolin-6-yl)cyclopropane-1-carboxamide]: the pKi is 6.76 in test [1] (ROCK2, Table 17); 6.57 in test [2] (ROCK1, Table 17); 6.19 in test [3] (Table 17, read-out: JAK2).
Turning to `O=C(Nc1ccc2cnccc2c1)[C@@H]1C[C@H]1c1ccc(S(=O)(=O)Nc2ccccc2)cc1` (racemic) [(rel)-(1R,2R)-N-(isoquinolin-6-yl)-2-(4-(N-phenylsulfamoyl)phenyl)cyclopropane-1-carboxamide], the pKi in test [1] (ROCK2, Table 17) is 7.12; in test [2] (ROCK1, Table 17) it was 6.81.
Take `O=C(Nc1ccc2cnccc2c1)[C@@H]1C[C@H]1c1ccc(S(=O)(=O)NCc2cccnc2)cc1` [Example E269]: the pKi in test [1] (ROCK2, Table 16) is 8.05; in test [2] (ROCK1, Table 16), 7.60.
`O=C(Nc1ccc2cnccc2c1)[C@@H]1C[C@H]1c1ccc(S(=O)(=O)Nc2cccnc2)cc1` [drawing 658]: the pKi in test [1] (ROCK2, Table 17) is 7.62; in test [2] (ROCK1, Table 17), 7.07.
For `O=C(Nc1ccc2cnccc2c1)[C@@H]1C[C@H]1c1ccc(S(=O)(=O)Nc2ccccc2)cc1` [Example E265], the pKi in test [1] (ROCK2, Table 16) is 7.12; in test [2] (ROCK1, Table 16), 6.81.
For `O=C(Nc1ccc2cncc(Cl)c2c1)[C@@H]1C[C@H]1c1ccc(S(=O)(=O)NC[C@@H]2CCCNC2)cc1` [Example E274], the pKi in test [4] (Table 16) is 6.80.
On to `O=C(Nc1ccc2cncc(Cl)c2c1)[C@@H]1C[C@H]1c1ccc(S(=O)(=O)NC[C@@H]2CCCNC2)cc1` (relative stereo) [(rel)-(1R,2R)-N-(4-chloroisoquinolin-6-yl)-2-(4-(N-(((R)-piperidin-3-yl)methyl)sulfamoyl)phenyl)cyclopropane-1-carboxamide dihydrochloride], for which, in test [4] (Table 17), the pKi was 6.80.
Regarding `O=C(Nc1ccc2cncc(Cl)c2c1)[C@@H]1C[C@H]1c1ccc(S(=O)(=O)NC[C@@H]2CCCNC2)cc1` [drawing 666], the pKi in test [4] (Table 17) is 6.80.
For the molecule `O=C(Nc1ccc2cnccc2c1)[C@@H]1C[C@H]1c1ccc(S(=O)(=O)Nc2cccnc2)cc1` [Example E268], the pKi is 7.62 in test [1] (ROCK2, Table 16) and 7.07 in test [2] (ROCK1, Table 16).
For `O=C(Nc1ccc2cnccc2c1)[C@@H]1C[C@H]1c1ccc(S(=O)(=O)NCC2CCNCC2)cc1` [Example E271] the same measures were 8.10 and 8.05.
For `O=C(Nc1ccc2cnccc2c1)[C@@H]1C[C@H]1c1ccc(S(=O)(=O)NC2CCNCC2)cc1` [Example E275] the same measures were 8.15 and 8.09.
For `O=C(Nc1ccc2cnccc2c1)[C@@H]1C[C@H]1c1ccc(S(=O)(=O)NCC2CCNCC2)cc1` (relative stereo) [drawing 663, (rel)-(1R,2R)-N-(isoquinolin-6-yl)-2-(4-(N-(piperidin-4-ylmethyl)sulfamoyl)phenyl) cyclopropane-1-carboxamide dihydrochloride], the pKi in test [1] (ROCK2, Table 17) was 8.10; in test [2] (ROCK1, Table 17), 8.05.
For `O=C(Nc1ccc2cnccc2c1)[C@@H]1C[C@H]1c1ccc(S(=O)(=O)NC2CCNCC2)cc1` (relative stereo) [(rel)-(1R,2R)-N-(isoquinolin-6-yl)-2-(4-(N-(piperidin-4-yl)sulfamoyl)phenyl) cyclopropane-1-carboxamide dihydrochloride] the same measures were 8.15 and 8.09.
Regarding `O=C(Nc1ccc2cnccc2c1)[C@@H]1C[C@H]1c1ccc(S(=O)(=O)N2CCNCC2)cc1` [Example E276], the pKi in test [1] (ROCK2, Table 16) was 7.51; in test [2] (ROCK1, Table 16), 7.32.
`O=C(Nc1ccc2cnccc2c1)[C@@H]1C[C@H]1c1ccc(S(=O)(=O)Nc2ccccn2)cc1` (single isomer, unassigned) [Example E267]: in test [4] (Table 16), the pKi is 8.24.
Consider `O=C(Nc1ccc2cnccc2c1)[C@@H]1C[C@H]1c1ccc(I)cc1` [Example E277], for which the pKi in test [1] (ROCK2, Table 16) is 6.76; in test [2] (ROCK1, Table 16), 6.57; in test [3] (Table 16, read-out: JAK2), 6.19.
Regarding `O=C(Nc1ccccc1Cl)OCc1ccc(C2CC2C(=O)Nc2ccc3cnccc3c2)cc1` (stereo not drawn) [Example E143], the pKi in test [5] is 6.60 to 6.72; in test [3] (setting [6]), 5.57 to 5.89.
`O=C(OCc1ccccc1)c1ccc(C2CC2C(=O)Nc2ccc3c(O)nccc3c2)cc1` (stereo not drawn) [Example E100.1] had a pKi in test [5] of 7.60. Further, in test [3], the JAK2 activity entry was “inactive”.
`O=C(Nc1ccc2cnccc2c1)[C@@H]1C[C@H]1c1cccc(S(=O)(=O)Nc2ccccn2)c1` [Example E279]: in test [2] (ROCK1, Table 16), the pKi was 7.96.
On to `O=C(NCc1ccccn1)c1ccc(C2CC2C(=O)Nc2ccc3cnccc3c2)cc1` (stereo not drawn) [Example E9], for which the pKi in test [5] was 8.30 to 8.52; in test [3] (setting [6]), 7.00 to 7.19.
For the molecule `O=C(Nc1ccc2cnccc2c1)[C@@H]1C[C@H]1c1ccc(S(=O)(=O)NC[C@H]2CCCNC2)cc1` [Example E272], the pKi is 8.30 in test [1] (ROCK2, Table 16) and 8.30 in test [2] (ROCK1, Table 16).
Regarding `CC(C)(C)OC(=O)c1ccc([C@@H]2C[C@H]2C(=O)Nc2ccc3cnccc3c2)c(F)c1` (relative stereo) [Example E191, trans-tert-butyl 3-fluoro-4-(2-(isoquinolin-6-ylcarbamoyl)cyclopropyl)benzoate], the results for the pKi in test [5] and in test [3] (setting [6]) were 6.73 to 6.90 and 5.52, respectively.
Taken in the same sequence, the figures for `O=C(NCc1cccnc1)c1ccc([C@@H]2C[C@H]2C(=O)Nc2ccc3cnccc3c2)cc1` (relative stereo) [Example E8, trans-4-(2-(isoquinolin-6-ylcarbamoyl)cyclopropyl)-N-(pyridin-3-ylmethyl)benzamide] were 8.00 to 9.00 and 6.70.
For `O=C(Nc1ccc2cnccc2c1)[C@@H]1C[C@H]1c1ccc(S(=O)(=O)NC[C@H]2CCCNC2)cc1` (relative stereo) [(rel)-(1R,2R)-N-(isoquinolin-6-yl)-2-(4-(N-(((S)-piperidin-3-yl)methyl)sulfamoyl)phenyl) cyclopropane-1-carboxamide dihydrochloride], the pKi in test [1] (ROCK2, Table 17) was 8.30; in test [2] (ROCK1, Table 17) it was 8.30.
For the molecule `O=C(Nc1ccc2cnccc2c1)[C@@H]1C[C@H]1c1ccc(S(=O)(=O)N2CCNCC2)cc1` (relative stereo) [(rel)-(1R,2R)-N-(isoquinolin-6-yl)-2-(4-(piperazin-1-ylsulfonyl)phenyl) cyclopropane-1-carboxamide dihydrochloride], the pKi was 7.51 in test [1] (ROCK2, Table 17) and 7.32 in test [2] (ROCK1, Table 17).
Take `O=C(NCc1cccnc1)c1ccc([C@@H]2C[C@H]2C(=O)Nc2ccc3cnccc3c2)cc1` [Example E56]: the pKi in test [5] is 8.52 to 9.30; in test [3] (setting [6]), 6.92 to 7.40.

For the origin of these results see patent US10858339B2, “Aryl cyclopropyl-amino-isoquinolinyl amide compounds” (priority 2017, dated 2020).
